Measured values from patent publication US11298348B2, “Combination treatment of sarcoglycanopathies” (INSERM (INSTITUT NATIONAL DE LA SANTE ET DE LA RECHERCHE …, priority 2018, dated 2022).

Tests used:
[1] = biological target: T1, R77C-α-SG (Homo sapiens, UniProt Q16586, R77C); experiment: Western blot and densitometry of α-SG content in βγδ-cells transiently expressing R77C-α-SG; type: cell-based; details: single corrector, C17 10 μM or C4 5 μM, 24 hours
T1 construct: The full-length cDNA encoding human α-sarcoglycan cloned in the pcDNA3 mammalian expression vector; expressed in transfected cells; host or cells: βγδ-cells (HER911 cells stably expressing β-, γ- and δ-sarcoglycan)
T1 sequence (Q16586 24-387 R77C): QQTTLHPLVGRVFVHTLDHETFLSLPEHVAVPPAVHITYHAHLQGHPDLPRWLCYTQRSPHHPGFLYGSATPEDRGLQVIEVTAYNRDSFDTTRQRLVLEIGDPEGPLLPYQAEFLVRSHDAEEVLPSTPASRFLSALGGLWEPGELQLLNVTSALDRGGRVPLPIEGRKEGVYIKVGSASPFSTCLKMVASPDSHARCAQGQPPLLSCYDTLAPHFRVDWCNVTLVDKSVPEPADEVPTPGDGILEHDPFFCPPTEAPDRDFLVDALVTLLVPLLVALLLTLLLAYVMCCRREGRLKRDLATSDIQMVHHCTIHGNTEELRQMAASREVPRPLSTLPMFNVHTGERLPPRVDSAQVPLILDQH
Procedure: (§1) For transient expression, HEK 293 cells were seeded at 50,000 cells/cm2 and transfected the day after with Transit293 (MirusBio) according to manufacturer's instruction. Twenty-four hours after transfection, medium was replaced with DMEM supplemented with 2% FBS containing the indicated concentration of correctors (dissolved in DMSO) or with DMSO alone (final DMSO concentration 0.1%). HER911 or βγδ-cells cells were seeded at 50,000 cells/cm2 and transfected the day after with 9 μl of Fugene HD Transfection Reagent (E2312 from Promega) and 3 μg of plasmid coding for wild type or mutated α-SG. MG132 was added 8 hours before cell lysis, CFTR correctors were added 24 hours before cell lysis or IF assay (transfected HEK293, V247M cells, HER911 and βγδ-cells) and 24-96 hours before myotubes lysis, treatment with CHX or IF assay.
After treatments, cells were washed twice with ice cold PBS and lysed with 5% sodium deoxycholate supplemented with complete protease inhibitor (Sigma-Aldrich).
Protein lysates were quantified by the bicinchoninic-acid protein assay kit (Thermo Scientific), according to manufacturer's instructions. […] After 1-hour incubation with donkey anti-rabbit IRDye680 and anti-mouse IRDye800 antibodies (EuroBio) at room temperature, proteins were detected by fluorescence in an Odissey imaging system (Li-Cor) following the manufacturer's instructions. […]

[2] = biological target: T1, R77C-α-SG; experiment: Immunofluorescence of membrane α-SG in intact βγδ-cells expressing R77C-α-SG (confocal, ImageXpress); type: cell-based; details: single corrector, 24 hours
Procedure: as §1
Immunofluorescence-confocal analyses were performed either in intact cells (not permeabilized) or in permeabilized cells. For the former condition, cells, grown on polylysine-treated glasses, at the end of treatments were incubated for 30 minutes at 4° C., then gently washed twice with ice-cold PBS and incubated with primary antibodies for 5 hours at 4° C. […]
Quantification of the mean fluorescence intensity of membrane staining of […] transfected with R77C-α-SG was performed by using ImageXpress microscope system (Molecular Devices). […]

Row | R77C-α-SG protein content [1] | localization of rescued R77C-α-SG at the plasma membrane (confocal IF, not-permeabilized cells) [2] | Compound
1 | three to four-fold increase | intense cell-surface staining | COc1ccc(Cl)cc1Nc1nc(-c2sc(NC(=O)c3ccccc3)nc2C)cs1 [C4, N-[2-(5-Chloro-2-methoxy-phenylamino)-4′-methyl-[4,5′]bithiazolyl-2′-yl]-benzamide]
2 | three to four-fold increase | intense cell-surface staining | COc1ccc(Cl)cc1Nc1nc(-c2sc(NC(=O)C(C)(C)C)nc2C)cs1 [C17, N-(2-(5-chloro-2-methoxyphenylamino)-4′-methyl-4,5′-bithiazol-2′-yl)pivalamide]
